According to US11613552B2, “Pharmaceutical agents, compositions, and methods relating thereto” (Alltech, Inc., priority 2017, dated 2023):

Columns and labels:
[1] = system: Lepr^db/db mice; assay: Glucose tolerance test in Lepr^db/db mice; assay type: in vivo, mouse
Experimental: Male Lepr^db/db mice at 38 days of age were intraperitoneally (ip) injected daily with physiological saline ([…]) containing 0.2% DMSO, Compound #C, Compound #50, Compound #68, and/or Compound #43 (25 μg selenium or sulfur equivalents of each compound per kilogram body weight, diluted in sterile physiological saline) for periods ranging from 43-90 days. Body weights of the above treated mice were recorded daily using a balance and any visible abnormal animal gross morphology and walking behavior were monitored daily. After the treatments, animals were fasted overnight and then subjected to blood glucose or HbA1c assays, glucose tolerance tests or tissue collections.
For comparative studies of any potential anti-diabetic effects of Compounds #43, #69 and #70, male Lepr^db/db mice at 41 days of age were intraperitoneally (ip) injected daily with physiological saline ([…]) containing 0.2% DMSO, Compound #43, Compound #69, or Compound #70 (25 μg selenium of each compound per kilogram body weight, diluted in sterile physiological saline). After the treatments for 43 days, animals were fasted overnight and then subjected to blood glucose and glucose tolerance tests. After daily treatments of these compounds for 90 days, sera from these animals were collected and then subjected to blood HbA1c assays.
Glucose tolerance tests were performed as described previously (Li et al, Int J Biol Sci 2008; 4:29-36). Briefly, overnight-fasted Lepr^db/db mice after saline or compound treatments were injected intraperitoneally with 2 grams/kg body weight of 20% D-glucose. Blood glucose levels at time 0 (immediately before the injection of glucose), 0.25, 0.5, 1 and 2 hours after injection of glucose were determined using a glucometer with a maximum glucose measurement capacity of 600 mg/dL. Because of this, blood glucose levels over 600 mg/dL were counted as 600 mg/dL in the data analysis.

[2] = system: Pdk1/Akt/Foxo1; assay: Western blot of Pdk1/Akt/Foxo1 signaling in livers of Lepr^db/db mice; assay type: in vivo, mouse; conditions: 25 μg selenium/kg ip daily, 52 days (FIG. 12)
Experimental: Male Lepr^db/db mice (C57BL/6J strain, purchased from The Jackson Laboratory) at postnatal day 38 were intraperitoneally injected daily with physiological saline ([…]) containing 0.2% DMSO, Compound #43 (25 μg selenium or sulfur equivalent of each compound per kilogram body weight, diluted in sterile physiological saline) for 52 days. After the treatment, livers were collected and stored at −80° C.
Frozen liver tissues were minced in sterile ice-old PBS containing complete proteinase and phosphatase inhibitors (Thermo-Fisher Scientific, Waltham, Mass.) and subjected to homogenization using a tissue homogenizer (Thermo-Fisher Scientific, Waltham, Mass.). These tissue homogenates were diluted in Themo-Fisher's premade RIPA buffer (1 part homogenate/2 part of RIPA buffer) containing complete proteinase/phosphatase inhibitors to extract the proteins. Proteins in the homogenates were extracted in RIPA buffer at 4° C. overnight. These overnight-extracted protein lysates were centrifuged at 12000×g for 30 min at 4° C., and the protein levels in the supernatant of these tissue lysates were determined using the Pierce Micro-BCA protein assay kit (Thermo Scientific-Piece Biotechnology, Rockford, Ill.) according to the manufacturer's protocol.
One hundred micrograms of liver tissue proteins or five micrograms of total proteins from control- and compound(s)-treated HepG2 or AML-12 cells were subjected to SDS-PAGE gel separation and then transferred to PVDF membranes, as described previously (Reddy et al. 2008 Science). Membranes were blocked in a phosphate-buffered saline (PBS) containing 5% (w/v) of bovine serum albumin (Sigma, St. Louis, Mo.) and incubated with specific primary antibodies followed by the incubation with HRP-conjugated anti-mouse or anti-rabbit secondary antibodies (1:5000 dilution, Cell Signaling Inc.). All primary antibodies except Gapdh (Li-COR, Lincoln, Nebr.) were purchased from Cell Signaling Inc. Positive signals on the membrane blots were detected using the Amersham's enhanced chemiluminescence Western Blotting Prime Detection reagents (GE Healthcare Lifescience, Pittsburgh, Pa.). Images of these luminescence signals on the membrane blots were captured using the LI-COR Odyssey Fc Image system (Lincoln, Nebr.). The same membrane blot was stripped and re-blotted with another antibody as described in the GE WB ECL-prime-detection protocol (GE healthcare Lifescience, Pittsburgh, Pa.). Protein band densities in the Western blots were determined using the NIH ImageJ software and then normalized by Gapdh or Actb/ACTB level in each sample. Data are presented as mean±SEM of three samples per each group.

[3] = system: INSRβ/AS160; assay: Western blot of INSRβ and AS160 phosphorylation in HepG2 cells; assay type: cell-based, human; conditions: 600 ppb, 30 and 60 minutes (FIG. 23)
Experimental: HepG2 cells were seeded on 6-well plates (7×10^5 cells/well) and cultured in 10% FBS EMEM media for 30 hr. Then these cells were washed twice with PBS to remove residual sera, and serum-starved in plain EMEM media overnight. These serum-starved HepG2 cells were treated without or with Compound #43 (600 ppb) in serum-free media for 0 minute (right before the treatment), 30 and 60 minutes.
After the above treatments, cultured HepG2 cells or differentiated C2C12 cells were rinsed twice with ice-cold PBS and lysed in ice-cold RIPA buffer containing complete proteinase and phosphatase inhibitors (Thermo-Fisher Scientific, Waltham, Mass.) on ice for 30 min. […] Protein levels in the supernatant of these cell lysates were determined using the Pierce Micro-BCA protein assay kit (Thermo Scientific-Piece Biotechnology, Rockford, Ill.) according to the manufacturer's protocol.
One hundred micrograms of skeletal muscle or liver tissue proteins, five micrograms of HepG2 cell protein extracts, or eight micrograms of differentiated C2C12 cell protein extracts were subjected to SDS-PAGE gel separation and then transferred to PVDF membranes, as described previously (Reddy et al. 2008 Science). […] Positive signals on the membrane blots were detected using the Amersham's enhanced chemiluminescence Western Blotting Prime Detection reagents (GE Healthcare Lifescience, Pittsburgh, Pa.). […]

C[Se]C[C@H]1O[C@@H](n2cnc3c(N)ncnc32)C(OC(C)=O)C1OC(C)=O (some centres unmarked) [Compound #43, Adenosine, 5′-Se-methyl-5′-selino-, 2′,3′-diacetate]
glucose tolerance (overall) ([1]; 25 μg selenium or sulfur/kg ip daily 2 months (FIG. 8B)): dramatically improves glucose tolerance | glucose tolerance (overall) ([1]; 25 μg selenium/kg ip daily 43 days from day 38, glucose 2 g/kg (FIG. 8A)): can almost completely restore insulin action | glucose tolerance (overall) ([1]; 25 μg selenium/kg ip daily 43 days from day 41 (FIG. 8C)): can dramatically improve glucose tolerance | blood glucose level at 2 hr after glucose injection ([1]; FIG. 8A, 43 days treatment): almost completely back to pre-injection glucose levels | blood glucose levels at 0.25, 0.5 and 1 hr after glucose injection ([1]; FIG. 8A, 43 days treatment): visibly lower than saline-, Compound #C- or #50-treated mice | blood glucose level at 2 hr after glucose injection ([1]; FIG. 8B, 2 months treatment): significantly lower than Compound #68-treated littermates | blood glucose level at 1 hour after glucose injection ([1]; FIG. 8C, 43 days treatment): significantly lower than saline-, Compound #69- or Compound #70-treated littermates | blood glucose level at 2 hr after glucose injection ([1]; FIG. 8C, 43 days treatment): much lower than Saline-, Compound #69- or Compound #70-treated mice | pAkt (Threonine 308) protein level in liver [2]: significantly elevated | pFoxo1 (Serine 256) protein level in liver [2]: significantly elevated | pPdk1 protein level in liver [2]: significantly elevated | total Akt levels in liver [2]: no significant change | phosphorylated AS160 [3]: significant increase of phosphorylated AS160 at 5588 | phosphorylated INSRβ at Y1146 [3]: significant increase of phosphorylated INSRβ at Y1146
